US10493077B2, “Fused imidazo-piperidine JAK inhibitor compound” (THERAVANCE BIOPHARMA R&D IP, LLC, priority 2017, dated 2019)

What was measured:
[1] = test system: IL-6 induced pSTAT3; assay: Pharmacodynamic assay: inhibition of IL6-induced pSTAT3 in rats; type: in vivo, rat; conditions: 50 μg intravitreal, suspension formulation, 3 day pre-treatment prior to IL-6 challenge, female Lewis rats
Protocol: The ability of a single intravitreal administration of test compound to inhibit IL-6 induced pSTAT3 was measured in rat retina/choroid homogenates.
A suspension formulation was prepared by combining compound 1 of Example 2, with 0.5% hydroxypropyl methylcellulose (HPMC E5 LV), 0.02% Tween 80, and 9 mg/mL sodium chloride in purified water to attain a target concentration of 10 mg/mL.
Female Lewis rats were intravitreally (IVT) dosed (5 μL per eye) with the suspension formulation. Three days later, IL-6 (Peprotech; 0.1 mg/mL; 5 μL per eye) or vehicle was intravitreally administered to induce pSTAT3. Ocular tissues were dissected one hour after the second IVT injection with IL-6. The retina/choroid tissues were homogenized and pSTAT3 levels were measured using an ELISA (Cell Signaling Technology). The percent inhibition of IL-6-induced pSTAT3 was calculated in comparison to the vehicle/vehicle and vehicle/IL-6 groups. Inhibition of greater than 100% reflects a reduction of pSTAT3 levels to below those observed in the vehicle/vehicle group.

[2] = test system: IFNγ induced IP-10; assay: Pharmacodynamic assay: inhibition of IFNγ-induced IP-10 in rabbit eyes; type: in vivo; conditions: Form 1 suspension, 0.9 mg intravitreal, 1 week pre-treatment, New Zealand White rabbits
Protocol: The ability of a single intravitreal administration of test compound to inhibit interferon-gamma (IFNγ) induced IP-10 protein levels was measured in rabbit vitreous and retina/choroid tissues.
(§1) A suspension formulation was prepared by combining compound 1 of Example 2 (Form 1), with 0.5% hydroxypropyl methylcellulose (HPMC E5), 0.02% Tween 80, and 9 mg/mL sodium chloride in purified water to attain a target concentration of 20 mg/mL.
Male, New Zealand White rabbits (Liveon Biolabs, India) were used for the studies. Animals were acclimated after arrival at the research facilities (Jubilant Biosys Ltd., India). Each rabbit was given a total of two intravitreal (IVT) injections with a total dose volume of 50 μL per eye. The first IVT injection (45 μL per eye) delivered 0.9 mg of test compound or vehicle. One week later, a second IVT injection (5 μL per eye) delivered IFNγ (1 μg/eye; stock solution 1 mg/mL; Kingfisher Biotech) or vehicle for the induction of IP-10. […]
Tissues were collected 24 hours after the second IVT injection with IFNγ. Vitreous humor (VH) and retina/choroid tissues (R/C) were collected and homogenized, and IP-10 protein levels were measured using a rabbit CXCL10 (IP-10) ELISA kit (Kingfisher Biotech). The percent inhibition of IFNγ-induced IP-10 was calculated in comparison to the vehicle/vehicle and vehicle/IFNγ groups.

[3] = test system: IFNγ induced pSTAT1; assay: Pharmacodynamic assay: inhibition of IFNγ-induced pSTAT1 in rabbit eyes; type: in vivo; conditions: rabbits
Protocol: The ability of a single intravitreal administration of test compound to inhibit interferon-gamma (IFNγ) induced phosphorylation of STAT1 protein (pSTAT1) was measured in rabbit retina/choroid tissue.
as §1
Male, New Zealand White rabbits (Liveon Biolabs, India) were used for the studies. Animals were acclimated after arrival at the research facilities (Jubilant Biosys Ltd., India). Each rabbit was given a total of two intravitreal (IVT) injections with a total dose volume of 50 μL per eye. The first IVT injection (45 μL per eye) delivered 0.9 mg of test compound or vehicle. […] On the day of the injections, rabbits were anesthetized with an intramuscular injection of ketamine (35 mg/kg) and xylazine (5 mg/kg). Once deeply anesthetized, each eye was rinsed with sterile saline and IVT injections were performed using a 0.5 mL insulin syringe (50 units=0.5 mL) with a 31-gauge needle at the supra-nasal side of the both eyes by marking the position with a Braunstein fixed caliper (2¾″) 3.5 mm from the rectus muscle and 4 mm from the limbus.
Tissues were collected 2 hours after the second IVT injection with IFNγ. Retina/choroid tissues (R/C) were collected and homogenized, and pSTAT1 levels were measured by quantitative Western Blot on the ProteinSimple WES instrument. The percent inhibition of IFNγ-induced pSTAT1 was calculated in comparison to the vehicle/vehicle and vehicle/IFNγ groups.
Male, New Zealand White rabbits (Liveon Biolabs, India) were used for the studies. Animals were acclimated after arrival at the research facilities (Jubilant Biosys Ltd., India). Each rabbit was given a total of two intravitreal (IVT) injections with a total dose volume of 50 μL per eye. The first IVT injection (45 μL per eye) delivered 500 μg, 150 μg, or 50 μg of test compound or vehicle. Two weeks later, a second IVT injection (5 μL per eye) delivered IFNγ (1 μg/eye; stock solution 1 mg/mL; Kingfisher Biotech) or vehicle for the induction of IP-10. On the day of the injections, rabbits were anesthetized with an intramuscular injection of ketamine (35 mg/kg) and xylazine (5 mg/kg). Once deeply anesthetized, each eye was rinsed with sterile saline and IVT injections were performed using a 0.5 mL insulin syringe (50 units=0.5 mL) with a 31-gauge needle at the supra-nasal side of the both eyes by marking the position with a Braunstein fixed caliper (2¾″) 3.5 mm from the rectus muscle and 4 mm from the limbus.

[4] = molecular target: T1, VEGFR2 (Homo sapiens, UniProt P35968); assay: Kinome screen, VEGFR2; type: binding; conditions: screened at 1 μM
T1 construct: made in house; host or cells: T7 phage in E. coli (BL21-derived) or HEK-293
T1 sequence (P35968 20-1356): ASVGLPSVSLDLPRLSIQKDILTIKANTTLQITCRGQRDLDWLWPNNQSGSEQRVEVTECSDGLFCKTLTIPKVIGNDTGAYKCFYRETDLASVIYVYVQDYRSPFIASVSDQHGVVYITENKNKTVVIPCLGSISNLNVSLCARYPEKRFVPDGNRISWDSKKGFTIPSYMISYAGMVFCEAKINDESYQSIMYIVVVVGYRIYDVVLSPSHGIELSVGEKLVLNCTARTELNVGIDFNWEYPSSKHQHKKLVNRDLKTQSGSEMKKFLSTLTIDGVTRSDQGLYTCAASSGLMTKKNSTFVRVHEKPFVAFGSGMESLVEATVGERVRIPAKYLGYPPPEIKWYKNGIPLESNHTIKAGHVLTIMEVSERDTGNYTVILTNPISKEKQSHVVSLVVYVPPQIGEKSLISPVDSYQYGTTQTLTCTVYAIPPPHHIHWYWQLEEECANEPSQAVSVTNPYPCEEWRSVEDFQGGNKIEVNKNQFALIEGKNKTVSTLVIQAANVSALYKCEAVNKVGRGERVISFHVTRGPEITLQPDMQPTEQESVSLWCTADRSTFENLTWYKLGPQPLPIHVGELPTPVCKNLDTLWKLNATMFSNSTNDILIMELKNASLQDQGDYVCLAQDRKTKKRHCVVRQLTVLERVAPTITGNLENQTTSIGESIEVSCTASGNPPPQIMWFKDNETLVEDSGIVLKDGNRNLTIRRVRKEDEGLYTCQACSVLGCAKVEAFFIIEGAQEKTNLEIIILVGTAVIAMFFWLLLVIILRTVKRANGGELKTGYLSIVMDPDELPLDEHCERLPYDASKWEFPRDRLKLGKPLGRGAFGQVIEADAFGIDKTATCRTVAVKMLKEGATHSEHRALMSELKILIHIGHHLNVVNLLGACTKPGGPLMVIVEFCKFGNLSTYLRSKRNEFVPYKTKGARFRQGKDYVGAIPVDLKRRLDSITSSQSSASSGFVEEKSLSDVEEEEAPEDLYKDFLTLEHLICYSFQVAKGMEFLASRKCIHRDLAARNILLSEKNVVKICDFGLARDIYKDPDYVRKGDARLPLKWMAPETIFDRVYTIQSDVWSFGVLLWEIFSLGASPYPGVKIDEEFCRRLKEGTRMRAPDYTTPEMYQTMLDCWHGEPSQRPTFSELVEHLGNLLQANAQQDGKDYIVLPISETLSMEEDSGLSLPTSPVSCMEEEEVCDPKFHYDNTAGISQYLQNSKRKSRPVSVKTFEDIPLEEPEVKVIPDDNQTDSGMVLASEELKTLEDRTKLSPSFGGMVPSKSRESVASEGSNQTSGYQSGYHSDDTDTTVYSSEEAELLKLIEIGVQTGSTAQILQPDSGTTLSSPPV
Protocol: Kinase-tagged T7 phage strains were grown in parallel in 24-well blocks in an E. coli host derived from the BL21 strain. E. coli were grown to log-phase and infected with T7 phage from a frozen stock (multiplicity of infection=0.4) and incubated with shaking at 32° C. until lysis (90-150 minutes). The lysates were centrifuged (6,000×g) and filtered (0.2 μm) to remove cell debris. The remaining kinases were produced in HEK-293 cells and subsequently tagged with DNA for qPCR detection.
Streptavidin-coated magnetic beads were treated with biotinylated small molecule ligands for 30 minutes at room temperature to generate affinity resins for kinase assays. The liganded beads were blocked with excess biotin and washed with blocking buffer (SeaBlock (Pierce), 1% BSA, 0.05% Tween 20, 1 mM DTT) to remove unbound ligand and to reduce non-specific phage binding. […] Test compounds were prepared as 40× stocks in 100% DMSO and directly diluted into the assay. All reactions were performed in polypropylene 384-well plates in a final volume of 0.04 ml. […] The beads were then re-suspended in elution buffer (1×PBS, 0.05% Tween 20, 0.5 μM non-biotinylated affinity ligand) and incubated at room temperature with shaking for 30 minutes. The kinase concentration in the eluates was measured by qPCR.

CCc1cc(O)c(F)cc1-c1cc(F)c2c(-c3nc4c([nH]3)CCN(C(=O)CN3CCOCC3)C4)n[nH]c2c1 [Compound 1, 1-(2-(6-(2-ethyl-5-fluoro-4-hydroxyphenyl)-4-fluoro-1H-indazol-3-yl)-1,4,6,7-tetrahydro-5H-imidazo[4,5-c]pyridin-5-yl)-2-morpholinoethan-1-one]
inhibition of IL-6-induced pSTAT3 in retina/choroid tissues [1]: 116% | inhibition of IFNγ-induced IP-10 in retina/choroid tissues [2]: 80% | inhibition of IFNγ-induced IP-10 in vitreous humor [2]: 81% | inhibition of IFNγ-induced pSTAT1 in retina/choroid ([3]; Form 1 suspension, 0.9 mg intravitreal, 1 week pre-treatment): 85% | inhibition of IFNγ-induced pSTAT1 in retina/choroid ([3]; Form 1 suspension, single intravitreal dose, 3 month pre-treatment): 76% | inhibition of IFNγ-induced pSTAT1 in retina/choroid ([3]; Form 2 suspension, 50 μg intravitreal, 2 week pre-treatment): 61% | inhibition of IFNγ-induced pSTAT1 in retina/choroid ([3]; Form 2 suspension, 150 μg intravitreal, 2 week pre-treatment): 58% | inhibition of IFNγ-induced pSTAT1 in retina/choroid ([3]; Form 2 suspension, 500 μg intravitreal, 2 week pre-treatment): 79% | inhibition at 1 µM [4]: 42%
